Target: T1, MBP-HTT(1-89)Q46-His(6×) (“Exon1-Q46”) protein aggregates (Homo sapiens, UniProt P42858, INS38QQQQQQQQQQQQQQQQQQQQQQQQQ)
T1 construct: MBP-HTT(1-89)Q46-His(6×); His(6×) (C); made in house
Assay: Exon1-Q46 Radioligand Binding Assay
Conditions: displacement of 0.3 nM [3H3-methyl]-5-((5-methoxypyridin-2-yl)methoxy)-2-(pyrazin-2-yl)benzo[d]oxazole from 1 μM aggregated Exon1-Q46, 60 minutes at 37° C.; read-out: Potency Range (IC50)
Procedure: Exon1-Q46 Radioligand Binding Assay
For experiments 30 μM MBP-Exon1-Q46 was incubated with 150 μg/mL thrombin in assay buffer (150 mM NaCl, 50 mM Tris pH 8.0) and 2 mM CaCl2 for 16 hours at 37° C. Aggregated Exon1-Q46 was pelleted by centrifugation for 5 minutes at 13,000 rpm in a bench top centrifuge and re-dissolved in the same volume of assay buffer. […] For the RBA, Q46 protein aggregates and test compounds were pre-incubated in assay buffer for 20 minutes at room temperature, in 100 μL/well in a 96-well plate (pp, round bottom). Then, ligand was added in 50 μL/well and incubated for 60 minutes at 37° C. Final assay concentrations were […] test compound, 1 μM Exon1-Q46 protein (equivalent monomer concentration) and 0.3 nM ligand [^3H3-methyl]-5-((5-methoxypyridin-2-yl)methoxy)-2-(pyrazin-2-yl)benzo[d]oxazole. Samples were transferred onto GF/B filter plates and washed 2× with 200 μL PBS using a Filtermate Harvester. After drying filter plates for 1 hour at 55° C., the back of the plates were sealed with foil and 30 μL/well scintillation fluid (Packard MicroScint 40) added, incubated for 15 minutes in the dark and counted in a MicroBeta reader. […] IC50 values were determined with a sigmoidal inhibition model with four variables (top, bottom, slope, IC50) in a global fit using the normalized replicate data.

T1 sequence (P42858 with tags, fused parts or gaps with the stated changes limits assumed): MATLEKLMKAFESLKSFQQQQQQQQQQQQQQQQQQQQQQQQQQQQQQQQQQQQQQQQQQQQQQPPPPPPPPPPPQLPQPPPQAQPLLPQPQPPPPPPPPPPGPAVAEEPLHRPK

| Compound | IC50 |
| --- | --- |
| Cn1ncc2c(=O)n(CCC(=O)Nc3cc(Cl)ccc3F)c3cc(F)ccc3c21 [Example 9-15] | < 100 nM |
| Cn1ncc2c(=O)n(CCC(=O)Nc3ccc(Cl)cc3F)c3cc(F)ccc3c21 [Example 9-16] | < 100 nM |
| Cn1ncc2c(=O)n(CCC(=O)Nc3ccccc3Cl)c3cc(F)ccc3c21 [Example 9-17] | < 100 nM |
| Cn1ncc2c(=O)n(CCC(=O)Nc3ccc(F)cc3F)c3cc(F)ccc3c21 [Example 9-18, N-(2,4-Difluorophenyl)-3-(7-fluoro-1-methyl-4-oxo-pyrazolo[4,3-c]quinolin-5-yl)propanamide] | < 100 nM |
| Cn1ncc2c(=O)n(CCC(=O)Nc3cccc(Cl)c3F)c3cc(F)ccc3c21 [Example 9-19] | < 100 nM |
| COc1ccc(NC(=O)CCn2c(=O)c3cnn(C)c3c3ccc(F)cc32)c(F)c1 [Example 9-20] | < 100 nM |
| Cn1ncc2c(=O)n(CCC(=O)Nc3cc(F)ccc3F)c3cc(F)ccc3c21 [Example 9-21] | < 100 nM |
| Cn1ncc2c(=O)[nH]c3cc(F)ccc3c21 [Example 9-22] | < 100 nM |
| COc1ccc(NC(=O)CCn2c(=O)c3cnn(C)c3c3ccc(F)cc32)nc1 [Example 9-23] | < 100 nM |
| C[C@@H]1CN(C(=O)CCn2c(=O)c3cnn(C)c3c3ccc(F)cc32)C[C@H]1C [Example 9-24] | < 100 nM |
| Cc1cccc(NC(=O)CCn2c(=O)c3cnn(C)c3c3ccc(F)cc32)c1F [Example 9-25] | < 100 nM |
| Cc1nn(C)c2c1c(=O)n(CCC(=O)Nc1ccc(F)cc1F)c1cc(F)ccc21 [Example 9-26] | < 100 nM |
| Cc1nn(C)c2c1c(=O)n(CCC(=O)Nc1ccccc1F)c1cc(F)ccc21 [Example 9-27] | < 100 nM |
| COc1ccc(NC(=O)CCn2c(=O)c3cn(C)nc3c3ccc(F)cc32)nc1 [Example 9-28] | < 100 nM |
| Cn1ncc2c(=O)n(CCC(=O)Nc3ccc(F)cc3)c3cc(F)ccc3c21 [Example 9-29] | < 100 nM |
| Cn1ncc2c(=O)n(CCC(=O)Nc3cccc(F)c3)c3cc(F)ccc3c21 [Example 9-30] | < 100 nM |
| Cn1ncc2c(=O)n(CCC(=O)O)c3cc(F)ccc3c21 [Example 9-31] | 500 to 10000 nM |

| Compound | IC50 |
| --- | --- |
| O=C(CCn1c(=O)c2cccn2c2ccc(F)cc21)Nc1ccc(O)cn1 [Example 10-1, 3-{7-Fluoro-4-oxo-4H,5H-pyrrolo[1,2-a]quinoxalin-5-yl}-N-(5-hydroxypyridin-2-yl)propanamide] | < 100 nM |
| COc1ccc(OCCCn2c(=O)c3cccn3c3ccc(F)cc32)nc1 [Example 11-1, 7-Fluoro-5-{3-[(5-methoxypyridin-2-yl)oxy]propyl}-4H,5H-pyrrolo[1,2-a]quinoxalin-4-one] | < 100 nM |
| Cc1ccc(C(=O)NCCn2c(=O)c3cccn3c3ccc(F)cc32)cc1 [Example 12-1, N-[2-(7-Fluoro-4-oxo-pyrrolo[1,2-a]quinoxalin-5-yl)ethyl]-4-methyl-benzamide] | < 100 nM |
| Cc1ccc(C(=O)NCCCn2c(=O)c3cccn3c3ccc(F)cc32)cc1 [Example 12-2] | < 100 nM |
| O=c1c2cccn2c2ccc(F)cc2n1CCN1CCc2ccccc2C1 [Example 13-1, 7-Fluoro-5-[2-(1,2,3,4-tetrahydroisoquinolin-2-yl)ethyl]-4H,5H-pyrrolo[1,2-a]quinoxalin-4-one] | < 100 nM |
| O=c1c2cccn2c2ccc(F)cc2n1CCCN1CCc2ccccc2C1 [Example 13-2] | < 100 nM |
| COc1ccc(C(=O)NCCn2c(=O)c3cccn3c3ccccc32)nc1 [Example 14-1, 5-Methoxy-N-(2-{4-oxo-4H,5H-pyrrolo[1,2-a]quinoxalin-5-yl}ethyl)pyridine-2-carboxamide] | < 100 nM |
| COc1ccc(C(=O)NCCn2c(=O)c3cccn3c3ccc(F)cc32)nc1 [Example 14-2] | < 100 nM |
| Cn1nc(C(=O)NCCn2c(=O)c3cccn3c3ccc(F)cc32)ccc1=O [Example 15-1] | < 100 nM |
| Cn1ncc2c(=O)n(CCNC(=O)c3ccc(F)cc3F)c3cc(F)ccc3c21 [Example 16-1] | < 100 nM |
| Cn1ncc2c(=O)n(CCNC(=O)c3ccccc3F)c3cc(F)ccc3c21 [Example 16-2] | < 100 nM |
| COc1ccc(CCCn2c(=O)c3cccn3c3ccc(F)cc32)cn1 [Example 18-1, 7-Fluoro-5-[3-(6-methoxy-3-pyridyl)propyl]pyrrolo[1,2-a]quinoxalin-4-one] | < 100 nM |
| O=C(CCn1c(=O)c2cn[nH]c2c2ccc(F)cc21)Nc1ccc(F)cc1F [Example 19-1, N-(2,4-Difluorophenyl)-3-(7-fluoro-4-oxo-1H-pyrazolo[4,3-c]quinolin-5-yl)propanamide] | < 100 nM |
| [2H]C([2H])([2H])n1ncc2c(=O)n(CCC(=O)Nc3ccc(F)cc3F)c3cc(F)ccc3c21 [Example 19-3] | < 100 nM |
| [2H]C([2H])([2H])n1cc2c(=O)n(CCC(=O)Nc3ccc(F)cc3F)c3cc(F)ccc3c2n1 [Example 19-4] | < 100 nM |
| [2H]C(C(=O)Nc1ccc(F)cc1F)C([2H])([2H])n1c(=O)c2cnn(C)c2c2ccc(F)cc21 (stereo not drawn) [Example 20-1] | < 100 nM |
